The source of these data is patent publication US20020103141A1, “Antiangiogenic combination therapy for the treatment of cancer” (priority 1998, published 2002).

The target in data set [1] is T1, COX-2 (UniProt P35354).
T1 sequence (P35354 1-604): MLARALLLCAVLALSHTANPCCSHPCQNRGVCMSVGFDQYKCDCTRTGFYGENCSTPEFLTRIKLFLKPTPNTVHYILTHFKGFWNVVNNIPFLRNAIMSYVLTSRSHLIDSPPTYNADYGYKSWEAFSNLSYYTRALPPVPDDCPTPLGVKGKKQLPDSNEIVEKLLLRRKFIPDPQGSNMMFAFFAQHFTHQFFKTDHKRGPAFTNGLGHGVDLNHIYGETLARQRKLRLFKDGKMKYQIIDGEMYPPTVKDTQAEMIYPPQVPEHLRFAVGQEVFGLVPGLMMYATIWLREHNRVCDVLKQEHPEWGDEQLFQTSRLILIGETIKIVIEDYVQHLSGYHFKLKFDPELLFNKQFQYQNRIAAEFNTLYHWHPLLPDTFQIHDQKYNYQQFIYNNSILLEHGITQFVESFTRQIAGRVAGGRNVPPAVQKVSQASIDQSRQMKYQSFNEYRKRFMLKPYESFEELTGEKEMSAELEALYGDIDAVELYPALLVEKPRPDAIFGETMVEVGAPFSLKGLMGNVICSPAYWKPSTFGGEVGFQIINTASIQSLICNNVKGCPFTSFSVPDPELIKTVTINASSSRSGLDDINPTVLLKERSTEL
Put plainly: Fast assay for COX-2 activity (PGE2 ELISA). Particulars: read-out: COX-2* IC50, recombinant COX-2, PGE2 ELISA, 10 min pre-incubation at 25° C.
Experimental: (§1) The homogenate was centrifuged at 10,000×G for 30 minutes, and the resultant supernatant was stored at −80° C. before being assayed for COX activity.
(§2) COX activity was assayed as PGE2 formed/μg protein/time using an ELISA to detect the prostaglandin released. CHAPS-solubilized insect cell membranes containing the appropriate COX enzyme were incubated in a potassium phosphate buffer (0.05 M Potassium phosphate, pH 7.5, 2 μM phenol, 1 μM heme, 300 μM epinephrine) with the addition of 20 μl of 100 μM arachidonic acid (10 μM). […] The PGE2 formed was measured by standard ELISA technology (Cayman Chemical).

Data set [2] deals with COX-1 (UniProt P23219). Nature of the data set: Fast assay for COX-1 activity (PGE2 ELISA). The conditions noted are these: read-out: COX-1* IC50, recombinant COX-1, PGE2 ELISA, 10 min pre-incubation at 25° C. A general note: ELISA stands for enzyme-linked immunosorbent assay.
Experimental: as §1, §2
For data set [3] the following is noted: cited from earlier work.

Like-named read-outs stand apart in the source and are kept apart here. Some results are limits rather than exact numbers.

As usually defined, the melting point is the temperature of the solid-liquid transition. As a reminder, the IC50 is the concentration that gives 50% inhibition. `O=C(O)C1=Cc2cc(I)ccc2NC1C(F)(F)F` (stereo not shown) [Example 21, 6-Iodo-1,2-dihydro-2-(trifluoromethyl)-3-quinolinecarboxylic acid] came in with a melting point of 188 to 192 °C. In data set [1], the concentration for half-maximal inhibition (IC50) amounted to 0.8 µM. In addition, the IC50 in data set [2] is > 100 µM.

For the compound `CC(C)(C)c1ccc2c(c1)OC(C(F)(F)F)C(C(=O)O)=C2` (stereo not shown) [Example 15, 7-(1,1-Dimethylethyl)-2-trifluoromethyl-2H-1-benzopyran-3-carboxylic acid], the melting point lay in the range of 165.6 to 166.8 °C. Also, the concentration for half-maximal inhibition (IC50) in data set [1] is 3.6 µM. Also, in data set [2], the IC50 is 57 µM.

The compound `O=C(O)C1=Cc2cc(Cl)cc(Cl)c2NC1C(F)(F)F` (stereo not shown) [Example 14, 6,8-Dichloro-1,2-dihydro-2-(trifluoromethyl)-3-quinolinecarboxylic acid] returned a melting point of 223.4 to 225.7 °C. The IC50 in data set [1] worked out at 0.2 µM. For the same compound, the IC50 in data set [2] stood at 9.7 µM.

With `O=C(O)C1=Cc2cc(Cl)ccc2OC1C(F)(F)F` (stereo not shown) [Example 1, 6-Chloro-2-trifluoromethyl-2H-1-benzopyran-3-carboxylic acid], the IC50 in data set [1] was found to be 0.7 µM; in data set [2] it was 43 µM.

For `O=C(O)C1=Cc2cc(C(F)(F)F)ccc2OC1C(F)(F)F` (stereo not shown) [Example 18, 2,6-Bis(trifluoromethyl)-2H-1-benzopyran-3-carboxylic acid], the melting point is 143.5 to 145.2 °C.

Compound `O=C(O)C1=Cc2cc(Cl)ccc2O[C@@H]1C(F)(F)F` [Example 2, (S)-6-Chloro-2-trifluoromethyl-2H-1-benzopyran-3-carboxylic acid] had a melting point of 126.7 to 128.9 °C.

Compound `Cc1cc2c(cc1Cl)C=C(C(=O)O)C(C(F)(F)F)S2` (stereo not shown) [Example 23, 6-Chloro-7-methyl-2-(trifluoromethyl)-2H-1-benzothiopyran-3-carboxylic acid] had a melting point of 240.5 to 241.7 °C. Moreover, the IC50 in data set [2] was found to be 365 µM.

`O=C(O)C1=Cc2cc(Cl)c(Cl)c(Cl)c2OC1C(F)(F)F` (stereo not shown) [Example 20, 6,7,8-Trichloro-2-(trifluoromethyl)-2H-1-benzopyran-3-carboxylic acid] returned a melting point of 222 to 225.3 °C.

For the compound `O=C(O)C1=Cc2cc(Cl)cc(Cl)c2SC1C(F)(F)F` (stereo not shown) [Example 24, 6,8-Dichloro-2-trifluoromethyl-2H-1-benzothiopyran-3-carboxylic acid], the IC50 in data set [2] worked out at 0.2 µM.

Consider `CSc1ccc2c(c1)C=C(C(=O)O)C(C(F)(F)F)O2` (stereo not shown) [Example 2, 6-(Methylthio)-2-(trifluoromethyl)-2H-1-benzopyran-3-carboxylic acid], for which the melting point was 166.3 to 167.9 °C.

`O=C(O)C1=Cc2cc(C(F)F)ccc2OC1C(F)(F)F` (stereo not shown) [Example 8, 6-(Difluoromethyl)-2-(trifluoromethyl)-2H-1-benzopyran-3-carboxylic acid] had a melting point of 134.7 to 136.2 °C.

Take `O=C(O)C1=Cc2cc(OC(F)(F)F)ccc2OC1C(F)(F)F` (stereo not shown) [Example 5, 6-Trifluoromethoxy-2-trifluoromethyl-2H-1-benzopyran-3-carboxylic acid]: the IC50 in data set [2] is 18.8 µM.

Take `CC[C@@]1(O)C(=O)OCc2c1cc1n(c2=O)Cc2cc3c([N+](=O)[O-])cccc3nc2-1` [rubitecan, 1H-Pyrano[3′,4′:6,7]indolizino[1,2-b]quinoline-3,14(4H,12H)-dione, -4-ethyl-4-hydroxy-10-nitro-, (S)-]: in data set [3] (% of patients), the “grade 4 anemia” value was 29% of and the “grade 4 thrombocytopenia” value was “penia in 18%”. In data set [3] (occurred at each dose level), the “chemical cystitis, Grade 2 or higher” value is recorded as “(25%),”; the “diarrhea, Grade 2 or higher” value is given as “(32%),”; the “nausea and vomiting, Grade 2 or higher” value was “(54%),”; the “neutropenic sepsis, Grade 2 or higher” value is reported as “sepsis (21%),”. Further, the “weight loss, Grade 2 or higher” value in data set [3] (occurred at each dose level) is listed as “loss (18%)”. In addition, the Maximum tolerated dose in data set [3] (over five consecutive days repeated every week) is 1.5 mg/ mg/m2/day.

The compound `O=C(O)C1=Cc2cc(Br)ccc2NC1C(F)(F)F` (stereo not shown) [Example 22, 6-Bromo-1,2-dihydro-2-(trifluoromethyl)-3-quinolinecarboxylic acid] yielded a melting point of 185 to 186 °C. For the same compound, in data set [1], the IC50 came out at 0.4 µM. Further, in data set [2], the IC50 was > 100 µM.

As to `O=C(O)C1=Cc2c(ccc(Cl)c2Cl)OC1C(F)(F)F` (stereo not shown) [Example 17, 5,6-Dichloro-2-(trifluoromethyl)-2H-1-benzopyran-3-carboxylic acid], the melting point lay within 211.5 to 213.5 °C.

`O=C(O)C1=Cc2cc(Cl)ccc2NC1C(F)(F)F` (stereo not shown) [Example 12, 6-Chloro-1,2-dihydro-2-(trifluoromethyl)-3-quinolinecarboxylic acid] returned a melting point of 187.8 to 188.8 °C. In addition, the IC50 in data set [1] is 0.6 µM. In addition, in data set [2], the IC50 was > 500 µM.

Compound `Cc1c(Cl)cc2c(c1Cl)OC(C(F)(F)F)C(C(=O)O)=C2` (stereo not shown) [Example 9, 6,8-Dichloro-7-methyl-2-(trifluoromethyl)-2H-1-benzopyran-3-carboxylic acid] yielded a melting point of 229.9 to 230.9 °C. The IC50 in data set [1] was found to be 0.9 µM. Also, the IC50 in data set [2] was 1 µM.

Consider `O=Cc1ccc2c(c1)C=C(C(=O)O)C(C(F)(F)F)O2` (stereo not shown) [Example 7, 6-Formyl-2-(trifluoromethyl)-2H-1-benzopyran-3-carboxylic acid], for which the melting point was 211.3 to 215.7 °C. Besides, the concentration for half-maximal inhibition (IC50) in data set [2] is > 500 µM.

For `CC[C@@]1(O)C(=O)OCc2c1cc1n(c2=O)Cc2cc3c(CN(C)C)c(O)ccc3nc2-1` [Topotecan, 1H-Pyrano[3′,4′:6,7]indolizino[1,2-b]quinoline-3,14(4,H,12H)-dione, 10-[(dimethylamino)methyl]-4-ethyl-4,9-dihydroxy-, (S)-], in data set [3] (× 5 d every 3 to 4 wk), the Maximally tolerated dose entry is “dose: 1.5 mg/m^2”.

The compound `O=C(O)C1=Cc2c(cc(Cl)c(Cl)c2Cl)OC1C(F)(F)F` (stereo not shown) [Example 19, 5,6,7-Trichloro-2-(trifluoromethyl)-2H-1-benzopyran-3-carboxylic acid] registered a melting point of 236.2 to 239.3 °C.

In the case of `O=C1c2c(c3c4ccc(O)cc4n([C@@H]4O[C@H](CO)[C@@H](O)[C@H](O)[C@H]4O)c3c3[nH]c4cc(O)ccc4c23)C(=O)N1NC(CO)CO` [J 107088, 5H-Indolo[2,3-a]pyrrolo[3,4-c]carbazole-5,7(6H)-dione, 12-β-D-glucopyranosyl-12,13-dihydro-2,10-dihydroxy-6-[[2-hydroxy-1-(hydroxymethyl)ethyl]amino]-], the Maximum tolerated dose in data set [3] (in vivo) is 7.5 mg/m2.

`O=C(O)C1=Cc2cc(Cl)c(Cl)cc2OC1C(F)(F)F` (stereo not shown) [Example 16, 6,7-Dichloro-2-trifluoromethyl-2H-1-benzopyran-3-carboxylic acid] displayed a melting point of 196.1 to 198.3 °C. For the same compound, the IC50 in data set [2] turned out to be 94.6 µM.

As to `CC[C@@]1(O)C(=O)OCc2c1cc1n(c2=O)Cc2cc3c(N)cccc3nc2-1` [9-aminocamptothecin, 1H-Pyrano[3′,4′:6,7]indolizino[1,2-b]quinoline-3,14(4H,12H)-dione, 10-amino-4-ethyl-4-hydroxy-, (S)-], the Maximum tolerated dose result in data set [3] (in vivo) was “dose = 45 mug/square metre/hr”.

Consider `O=C(O)C1=Cc2cc(Cl)ccc2N[C@@H]1C(F)(F)F` [Example 13, (S)-6-chloro-1,2-dihydro-2-(trifluoromethyl)-3-quinolinecarboxylic acid], for which the melting point was in the range of 173 to 176 °C. In data set [1], the IC50 was found to be 0.2 µM. Further, the IC50 in data set [2] was > 100 µM.
